From ChEMBL document CHEMBL1201862, “PubChem BioAssay data set” (2004) come the findings set out here.

The structures appear in SMILES notation.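 Interpolation was linear, between the two tested concentrations surrounding the appropriate level; five concentrations were tested over 48 hours in 96-well plates. GI50 = concentration required for 50% inhibition of growth.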 Activity calls are given as the source filed them. Cut-off read from the data, not from the text of the source: active = GI50 up to about 1.1 µM and inactive = higher.

Assay in all cases: NCI-60 cell line screen, 48 h
Assay [1] concerns CCRF-CEM.
Assay [2] has as its system OVCAR-8.
For assay [3], the system named is HCT-116.
For assay [4], the system named is MOLT-4.
Assay [5] concerns SK-OV-3.
For assay [6], the system named is M14.
The subject of assay [7] is A549.
Assay [8] relates to UO-31.
In assay [9] the test system is HOP-92.
The subject of assay [10] is TK-10.
Assay [11] concerns UACC-257.
In assay [12] the test system is RPMI-8226.
Assay [13] has as its system NCI-H460.
Assay [14] concerns SK-MEL-28.
The test system of assay [15] is HCC 2998.
Assay [16] has as its system U-251.
The test system of assay [17] is SR.
The subject of assay [18] is 786-0.
The test system of assay [19] is HOP-62.

Regarding `CC1CC2OC(=O)C3CC(O)CC(=C23)[C@@]12C[C@@H](c1ccoc1)OC2=O` (stereo not given in full), the GI50 in assay [1], in [2], in assay [3], in assay [4], in [5] and in assay [6] was > 100 µM (inactive) in each case. Moreover, the GI50 in assay [7], in assay [8], in [9], in [10], in assay [11] and in [12] was > 100 µM (inactive) each time. For the same compound, the GI50 in assay [13], in assay [14], in assay [15], in assay [16], in assay [17] and in assay [18] was > 100 µM (inactive) throughout.

Consider `Cc1nc(=O)n2c(c1C(=O)Nc1ccc(Cl)cc1)NCCC2`, for which the GI50 in [1], in assay [2], in [3], in assay [4], in [5] and in assay [19] was > 100 µM (inactive) each time. The GI50 in assay [6], in assay [7], in assay [9], in assay [10], in assay [12] and in assay [13] was > 100 µM (inactive) throughout. For the same compound, the GI50 in assay [14], in assay [16], in assay [17] and in assay [18] was > 100 µM (inactive) in each case.

On to `Cc1cccc2c1Oc1cc(Cl)ccc1C2NC(=O)CN(C)C` (stereo not given), for which the GI50 is 49.1 µM (inactive) in assay [1]; > 100 µM (inactive) in assay [2]; 27.5 µM (inactive) in assay [3]; 29.2 µM (inactive) in [4]; 73.8 µM (inactive) in [5]; 57.7 µM (inactive) in [19]. The GI50 in [6] was 24 µM (inactive); in assay [7], > 100 µM (inactive); in assay [8] it was 28.8 µM (inactive); in [10], > 100 µM (inactive); in assay [11] it was 31.6 µM (inactive); in [12], 29.2 µM (inactive). Also, the GI50 was 33.8 µM (inactive) in [13]; 27.1 µM (inactive) in assay [14]; 34.8 µM (inactive) in assay [15]; 31.4 µM (inactive) in assay [17]; 14.5 µM (inactive) in assay [18].

Regarding `CC(=O)OCCOCNC(=S)N/N=C/c1ccc2ccccc2n1`, the GI50 in assay [1] is 54 µM (inactive); in assay [2], 37.1 µM (inactive); in assay [3], 42.2 µM (inactive); in assay [4], > 100 µM (inactive); in assay [5], 43.1 µM (inactive); in [19] it was 45.1 µM (inactive). Further, the GI50 in assay [6] is 32.5 µM (inactive); in [7] it was 33 µM (inactive); in assay [8] it was 31.2 µM (inactive); in [10], 69 µM (inactive); in [11], 48.9 µM (inactive); in [12], > 100 µM (inactive). For the same compound, the GI50 in [13] is 27.5 µM (inactive); in assay [14], 70.1 µM (inactive); in assay [15], 31.7 µM (inactive); in assay [16] it was 29.2 µM (inactive); in assay [17], 24.8 µM (inactive); in assay [18] it was 39.4 µM (inactive).

As to `CC1C(=O)N(C)C2(CO)C(=O)O[C@H](C)C12O` (stereo not given in full), the GI50 in [2], in assay [3], in assay [4], in [5], in assay [19] and in assay [6] was > 100 µM (inactive) in each case. Further, the GI50 in assay [7] was > 100 µM (inactive); in assay [8] it was > 100 µM (inactive); in assay [9], < 0.01 µM (active); in [10], > 100 µM (inactive); in assay [12], > 100 µM (inactive); in [14], > 100 µM (inactive). Further, the GI50 in assay [15], in assay [16], in assay [17] and in assay [18] was > 100 µM (inactive) in each case.

Take `CC1(C(=O)O)CCOc2ccccc21` (stereo not given): the GI50 in [1], in assay [2], in assay [3], in assay [4], in assay [19] and in assay [6] was > 100 µM (inactive) each time. The GI50 in assay [7], in assay [8], in assay [9], in assay [10], in assay [11] and in assay [12] was > 100 µM (inactive) in each case. Further, the GI50 in assay [13], in assay [14], in assay [15], in assay [17] and in assay [18] was > 100 µM (inactive) throughout.

Turning to `CC(C)CCC[C@@H](C)[C@H]1CC[C@H]2[C@@H]3CC=C4CC(OCCCCN(O)CCCSC5OC(CO)C(O)C(O)C5O)CC[C@]4(C)[C@H]3CC[C@]12C` (stereo not given in full), the GI50 in assay [1] is 26.4 µM (inactive); in [2] it was 74.1 µM (inactive); in assay [3] it was 56.1 µM (inactive); in assay [4], 34 µM (inactive); in [5], > 100 µM (inactive); in assay [19] it was 94.2 µM (inactive). In addition, the GI50 in assay [6] was 25 µM (inactive); in assay [7] it was 42.2 µM (inactive); in assay [8], > 100 µM (inactive); in [9], > 100 µM (inactive); in [10], > 100 µM (inactive); in assay [11] it was > 100 µM (inactive). The GI50 is > 100 µM (inactive) in [12]; 39.9 µM (inactive) in assay [13]; > 100 µM (inactive) in assay [14]; 30.2 µM (inactive) in [16]; 34.7 µM (inactive) in assay [17]; 18 µM (inactive) in assay [18].

Take `C=C1CCCC2OC(OC)CCC12` (stereo not given): the GI50 in assay [1], in [2], in assay [3], in assay [4], in [5] and in [19] was > 100 µM (inactive) each time. Besides, the GI50 in assay [6], in assay [7], in assay [8], in assay [9], in assay [10] and in assay [11] was > 100 µM (inactive) throughout. Besides, the GI50 in assay [12], in [13], in assay [15], in assay [16], in [17] and in assay [18] was > 100 µM (inactive) each time.

Regarding `Cc1c(Cl)cccc1NC(=O)CC1C(=O)Nc2ccccc2S1(=O)=O` (stereo not given), the GI50 is 16.5 µM (inactive) in assay [1]; 18.4 µM (inactive) in assay [2]; 15.8 µM (inactive) in assay [3]; 7.83 µM (inactive) in assay [4]; 14.2 µM (inactive) in assay [6]; 18.2 µM (inactive) in [7]. Also, the GI50 in assay [8] was 17.1 µM (inactive); in [9] it was 15.7 µM (inactive); in assay [10] it was 25.8 µM (inactive); in assay [11] it was 24 µM (inactive); in [12] it was 11.6 µM (inactive); in assay [13], 14.7 µM (inactive). Besides, the GI50 is 18.6 µM (inactive) in assay [14]; 16.7 µM (inactive) in assay [15]; 13.1 µM (inactive) in assay [16]; 10.5 µM (inactive) in assay [17]; 17.3 µM (inactive) in assay [18].

Regarding `CCN1CCC(O)(/C=C/c2ccc(Cl)cc2)C(C(=O)/C=C/c2ccc(Cl)cc2)C1` (stereo not given), the GI50 in assay [1] is 22.7 µM (inactive); in [2] it was 24.4 µM (inactive); in assay [3] it was 3.63 µM (inactive); in assay [4], 23.9 µM (inactive); in assay [5], 23 µM (inactive); in [19] it was > 100 µM (inactive). Besides, the GI50 in assay [6] is 34.6 µM (inactive); in assay [7], 25.4 µM (inactive); in assay [8], 31.3 µM (inactive); in assay [10] it was 31.1 µM (inactive); in assay [11], 17.5 µM (inactive); in assay [12] it was 2.88 µM (inactive). Besides, the GI50 in assay [13] is 28 µM (inactive); in assay [14], 21.6 µM (inactive); in assay [15] it was 18.4 µM (inactive); in assay [16] it was 19 µM (inactive); in assay [17], 34.5 µM (inactive); in [18], 20 µM (inactive).

With `COc1ccc(NC(=O)C2C(=O)N(c3ccc(OC)cc3)C(=O)/C2=N\N)cc1` (stereo not given), the GI50 in [1], in [2], in [3], in assay [4], in [19] and in assay [6] was > 100 µM (inactive) throughout. Further, the GI50 in assay [7], in [8], in [9], in [10], in assay [11] and in assay [13] was > 100 µM (inactive) in each case. The GI50 in assay [14], in assay [15], in [16], in [17] and in [18] was > 100 µM (inactive) in each case.
